Assay results as given in patent US9169254B2, “Spiroimidazolone derivative” (Chugai Seiyaku Kabushiki Kaisha, priority 2009, dated 2015).

The compounds below were run against T1, human PTH1 receptor (Homo sapiens, UniProt Q03431) (assay: In vitro cAMP signal activity in HKRK-B7 cells (LLC-PK1 cells overexpressing the human PTH1 receptor)). Details: HKRK-B7 cells; compound at 1×10^−3 M; cAMP produced as percentage of that produced by hPTH(1-34) at 100 nM.
T1 sequence (Q03431 27-593): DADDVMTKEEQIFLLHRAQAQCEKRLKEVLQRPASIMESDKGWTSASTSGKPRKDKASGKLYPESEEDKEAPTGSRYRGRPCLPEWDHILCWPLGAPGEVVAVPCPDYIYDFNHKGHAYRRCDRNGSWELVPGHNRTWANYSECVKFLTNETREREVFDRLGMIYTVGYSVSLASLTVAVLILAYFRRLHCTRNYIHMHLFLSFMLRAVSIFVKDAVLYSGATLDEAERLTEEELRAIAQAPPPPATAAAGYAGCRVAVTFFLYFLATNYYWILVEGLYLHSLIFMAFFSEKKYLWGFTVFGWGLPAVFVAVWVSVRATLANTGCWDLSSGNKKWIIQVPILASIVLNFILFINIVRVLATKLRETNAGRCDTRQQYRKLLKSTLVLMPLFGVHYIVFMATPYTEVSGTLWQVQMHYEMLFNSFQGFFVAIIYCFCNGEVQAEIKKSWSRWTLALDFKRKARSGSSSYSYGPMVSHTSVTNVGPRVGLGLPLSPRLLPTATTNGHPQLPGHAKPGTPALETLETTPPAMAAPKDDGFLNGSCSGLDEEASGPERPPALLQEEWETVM
Type: cell-based

Compound	cAMP production activity (%)
COC(=O)c1ccccc1S(=O)(=O)N1CCC2(CC1)N=C(C1CCCCC1)NC2=O [Compound 51, 2-(2-Cyclohexyl-4-oxo-1,3,8-triaza-spiro[4.5]dec-1-ene-8-sulfonyl)-benzoic acid methyl ester]	38
CCCCC1CCC(C2=NC3(CCN(S(=O)(=O)CCc4ccc(NC(C)=O)cc4C)CC3)C(=O)N2)CC1 (stereo not shown) [Compound 905, N-(4-{2-[2-(4-butyl-cyclohexyl)-4-oxo-1,3,8-triaza-spiro[4.5]dec-1-ene-8-sulfonyl]-ethyl}-3-methyl-phenyl)-acetamide]	75
O=C1NC([C@@H]2C[C@H]3CC[C@@H]2C3)=NC12CCN(S(=O)(=O)c1cccc(Cl)c1)CC2 [Compound 23, 2-(1R,2R,4S)-bicyclo[2.2.1]hept-2-yl-8-(3-chloro-benzenesulfonyl)-1,3,8-triaza-spiro[4.5]dec-1-en-4-one]	41
Cc1cc(OC[C@H](O)CO)cc(C)c1CCS(=O)(=O)N1CCC2(CC1)N=C(C1CCC(CCC(F)(F)F)CC1)NC2=O (stereo partly drawn) [Compound 821, 8-{2-[4-((R)-2,3-dihydroxy-propoxy)-2,6-dimethyl-phenyl]-ethanesulfonyl}-2-[4-(3,3,3-trifluoro-propyl)-cyclohexyl]-1,3,8-triaza-spiro[4.5]dec-1-en-4-one]	82
Cc1cc(C(=O)N2CCN(CCCN(C)C)CC2)ccc1CCS(=O)(=O)N1CCC2(CC1)N=C(c1cccc(C(F)(F)F)c1)NC2=O [Compound 374, 8-(2-{4-[4-(3-dimethylamino-propyl)-piperazine-1-carbonyl]-2-methyl-phenyl}-ethanesulfonyl)-2-(3-trifluoromethyl-phenyl)-1,3,8-triaza-spiro[4.5]dec-1-en-4-one]	79

The remaining lines, values ahead:

cAMP production activity (%)	Compound
65	CCCC[C@]1(F)CC[C@@H](C2=NC3(CCN(S(=O)(=O)CCc4ccc(NC(C)=O)cc4C)CC3)C(=O)N2)CC1 [Compound 1062, N-(4-{2-[2-(4-butyl-4-fluoro-cyclohexyl)-4-oxo-1,3,8-triaza-spiro[4.5]dec-1-ene-8-sulfonyl]-ethyl}-3-methyl-phenyl)-acetamide]
69	CC(=O)Nc1ccc(CCS(=O)(=O)N2CCC3(CC2)N=C(C2CCC(C)(C)CC2)NC3=O)c(C)c1 [Compound 925, N-(4-{2-[2-(4,4-dimethyl-cyclohexyl)-4-oxo-1,3,8-triaza-spiro[4.5]dec-1-ene-8-sulfonyl]-ethyl}-3-methyl-phenyl)-acetamide]
95	Cc1cc(N(C)C(N)=O)cc(C)c1CCS(=O)(=O)N1CCC2(CC1)N=C(CCCCCCCCCc1ccccc1)NC2=O [Compound 1348, 1-(3,5-dimethyl-4-{2-[4-oxo-2-(9-phenyl-nonyl)-1,3,8-triaza-spiro[4.5]dec-1-ene-8-sulfonyl]-ethyl}-phenyl)-1-methyl-urea]
100	Cc1cc(C(=O)N2CCC(C)(O)CC2)cc(C)c1/C=C/[S@TB4](=O)(=O)N1CCC2(CC1)N=C(c1ccc(OC(F)(F)F)c(F)c1)NC2=O [Compound 1094, 2-(3-fluoro-4-trifluoromethoxy-phenyl)-8-{(E)-2-[4-(4-hydroxy-4-methyl-piperidine-1-carbonyl)-2,6-dimethyl-phenyl]-ethenesulfonyl}-1,3,8-triaza-spiro[4.5]dec-1-en-4-one]
80	Cc1cc(N(C)C(N)=O)cc(C)c1CCS(=O)(=O)N1CCC2(CC1)N=C(CCCCCCCCCO)NC2=O [Compound 1322, 1-(4-{2-[2-(9-Hydroxy-nonyl)-4-oxo-1,3,8-triaza-spiro[4.5]dec-1-ene-8-sulfonyl]-ethyl}-3,5-dimethyl-phenyl)-1-methyl-urea]
